The target in this test is T1, BluB/CobT2 (Propionibacterium freudenreichii, UniProt D7GJ95).
T1 construct: E. coli KRX, pFN18A; HaloTag removed by HaloTEV; N-terminal SDNA replaces initial Met
The test can be described thus: LC-ESI-MS of alpha-ribazole phosphate formed. It counts as biochemical. Particulars: 200 µM NaMN, 100 µM DMBI, 1 mM DTT, Tris-HCl pH 8.5, room temperature; CobT activity.

T1 sequence (D7GJ95 entry or part of it): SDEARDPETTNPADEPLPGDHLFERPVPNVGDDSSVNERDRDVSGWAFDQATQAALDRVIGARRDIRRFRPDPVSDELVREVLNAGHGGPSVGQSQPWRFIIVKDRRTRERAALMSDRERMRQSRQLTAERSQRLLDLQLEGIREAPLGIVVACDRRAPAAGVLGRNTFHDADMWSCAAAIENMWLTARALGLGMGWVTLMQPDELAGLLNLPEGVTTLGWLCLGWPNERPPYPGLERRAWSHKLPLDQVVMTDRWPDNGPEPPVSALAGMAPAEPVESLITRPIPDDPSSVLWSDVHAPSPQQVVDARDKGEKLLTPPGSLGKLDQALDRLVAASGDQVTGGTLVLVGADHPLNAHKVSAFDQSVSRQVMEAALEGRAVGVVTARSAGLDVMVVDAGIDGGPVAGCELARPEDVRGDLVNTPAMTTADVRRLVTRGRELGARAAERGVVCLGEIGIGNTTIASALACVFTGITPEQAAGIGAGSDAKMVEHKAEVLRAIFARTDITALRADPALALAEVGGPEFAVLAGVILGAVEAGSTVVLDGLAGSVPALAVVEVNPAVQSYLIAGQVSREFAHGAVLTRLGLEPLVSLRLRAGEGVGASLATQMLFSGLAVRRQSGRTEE

Turning to `O=C([O-])c1ccc[n+]([C@@H]2O[C@H](COP(=O)(O)O)[C@@H](O)[C@H]2O)c1` [NaMN], the “LC-ESI-MS of alpha-ribazole phosphate formed” value is “confirms that NaMN is the preferred substrate”.

Source of the values: PMC4657239, “BluB/CobT2 fusion enzyme activity reveals mechanisms responsible for production of active form of vitamin B12 by Propionibacterium freudenreichii” (Microbial Cell Factories, 2015).
